ChEMBL document CHEMBL5325475, “Discovery of a Potent and Selective Tyrosine Kinase 2 Inhibitor: TAK-279” (J Med Chem, 2023)

Legend:
[1] = in vivo; conditions: C57Bl/6, mouse, po, 10 mg/kg
[2] = in vivo; conditions: Sprague-Dawley, rat, po, 10 mg/kg
[3] = in vivo; conditions: beagle, dog, po, 10 mg/kg
[4] = in vivo; conditions: cynomolgus monkey, po, 10 mg/kg
[5] = in vivo; conditions: C57Bl/6, mouse, po, 10 mg/kg; remark: listed apart in the source
[6] = in vivo; conditions: Sprague-Dawley, rat, po, 10 mg/kg; remark: listed apart in the source
[7] = in vivo; conditions: beagle, dog, po, 10 mg/kg; remark: listed apart in the source
[8] = in vivo; conditions: cynomolgus monkey, po, 10 mg/kg; remark: listed apart in the source

CNc1cc(Nc2cccn(-c3ccccn3)c2=O)nc2c(C(=O)N[C@H]3CC[C@@H]3OC)cnn12 (single isomer, unassigned)
half-life [1]: 2 h | half-life [2]: 1.2 h | half-life [3]: 5.3 h | half-life [4]: 3.8 h | bioavailability [5]: 70% | bioavailability [6]: 37% | bioavailability [7]: 47% | bioavailability [8]: 47%

CNc1cc(Nc2cccn(-c3ncccc3F)c2=O)nc2c(C(=O)N[C@@H]3CC[C@H]3OC)cnn12
half-life [1]: 2.1 h | half-life [2]: 5.9 h | bioavailability [6]: 30%

CNc1cc(Nc2cccn(-c3ncccc3F)c2=O)nc2c(C(=O)N[C@@H]3C[C@@H]3F)cnn12
half-life [1]: 2.2 h | half-life [2]: 2.7 h | half-life [3]: 3 h | half-life [4]: 1.4 h | bioavailability [5]: 52% | bioavailability [6]: 59% | bioavailability [7]: 51% | bioavailability [8]: 97%
